For one test, the system named is HDACs. The experiment in a line: In vitro inhibition of HDACs (HDAC Inhibitor Drug Screening Kit, Biovision K340-100). The format is biochemical. To be noted: for inhibitory activity on HDACs compared with MS-275: concentrations of 2 mM, 200 μM, and 40 μM. How it is done: The in vitro inhibitory activities of the compounds towards HDACs were tested according to the instructions in the HDAC Inhibitor Drug Screening Kit (Biovision/Catalog #K340-100).
(1) The compounds to be tested were each individually prepared as 2 mM, 200 μM and 40 μM solutions and their inhibitory activities at these concentrations were tested.

Test [1] relates to Hut78 T lymphocytic leukemia cells. The experiment in a line: In vitro anti-proliferative effect, CCK-8 method, Hut78. As to conditions: Homo sapiens, HuT78, read-out: Hut-78 (inhibition %). The test is classed as cell-based. The method, then:
(§1) The inhibitory activities of the compounds towards Hut78 T lymphocytic leukemia cells, Jurkat E6-1 human T-cell lymphoma, PANC-1 human pancreatic cancer cells, A549 human lung cancer cells, K562 human chronic myelogenous leukemia cells, Hep3B2.1-7 human liver cancer cells, MDA-MB-435s human breast cancer cells. Colo320 human colorectal cancer cell lines, and PC-3 human prostate cancer at two concentrations of 100 μM and 10 μM were determined. The inhibition percentages were obtained through CCK-8 method.

Test [2] has as its system PANC-1 human pancreatic cancer cells. The experiment in a line: In vitro anti-proliferative effect, CCK-8 method, PANC-1. The format is cell-based. As to conditions: Homo sapiens, PANC-1. How it is done: as §1
(In general: Tetrazolium dyes change colour on reduction, which living cells bring about.)

Test [3] deals with Jurkat E6-1 human T-cell lymphoma. The experiment in a line: In vitro anti-proliferative effect, CCK-8 method, Jurkat E6-1. The test is classed as cell-based. As to conditions: Homo sapiens, Jurkat E6.1. The method, then:
as §1

For test [4], the system named is K562 human chronic myelogenous leukemia cells. The experiment in a line: In vitro anti-proliferative effect, CCK-8 method, K562. The test is classed as cell-based. As to conditions: Homo sapiens, K562. How it is done: as §1
Test [5] deals with A549 human lung cancer cells. Description: In vitro anti-proliferative effect, CCK-8 method, A549. To be noted: Homo sapiens, A549. The test is classed as cell-based. How it is done:
as §1

Test [6] deals with MDA-MB-435s human breast cancer cells. Description: In vitro anti-proliferative effect, CCK-8 method, MDA-MB-435s. The test is classed as cell-based. To be noted: Homo sapiens, MDA-MB-435S. The method, then:
as §1

In test [7] the test system is Hep3B2.1-7 human liver cancer cells. The experiment in a line: In vitro anti-proliferative effect, CCK-8 method, Hep3B. The format is cell-based. To be noted: Homo sapiens, Hep3B cell strain, CCK-8 method; for inhibition at 10 µM: compound at 10 μM; for inhibition at 100 µM: compound at 100 μM. The method, then: as §1
Test [8] has as its system PC-3 human prostate cancer. Description: In vitro anti-proliferative effect, CCK-8 method, PC-3. The test is classed as cell-based. As to conditions: Homo sapiens, PC-3 cell strain, CCK-8 method; for inhibition at 10 µM: compound at 10 μM; for inhibition at 100 µM: compound at 100 μM. The method, then:
as §1

The test system of test [9] is Colo320 human colorectal cancer cell lines. The experiment in a line: In vitro anti-proliferative effect, CCK-8 method, Colo320. The format is cell-based. As to conditions: Homo sapiens, COLO 320, Colo320 cell strain, CCK-8 method; for inhibition at 10 µM: compound at 10 μM; for inhibition at 100 µM: compound at 100 μM. The method, then: as §1

The term inhibition denotes the drop in the measured response relative to a control, in per cent. For orientation: IC50 means the concentration that gives 50% inhibition. Low values mean inhibition by little substance, high ones a need for much substance.

As for `Nc1ccccc1NC(=O)c1ccc(Nc2ncnc3ccccc23)cc1` [Compound V-1, N-(2-aminophenyl)-4-(quinazoline-4-amino)benzamide], the “Inhibition percentage (%) towards HDACs” value was found to be 9.4% in the test with HDACs (40 μM), 19.8% in the test on HDACs (200 μM) and 65.2% in the test on HDACs (2 mM). The inhibition at 10 µM in [1] stood at 36%; in test [2], 40.2%; in test [3], 48.5%; in test [4], 22.4%; in test [5] it was 50.6%; in [6], 26.7%. The values for the inhibition at 10 µM in [7], in test [8] and in test [9] were 2.6%, 79.5% and 33.7%, respectively. Besides, the inhibition at 100 µM in [1] was 67.2%; in test [2], 65.4%; in test [3], 79.3%; in test [4] it was 30.8%; in test [5], 89.7%; in [6], 87.5%. Moreover, the inhibition at 100 µM came to 37.4% in test [7], 91.5% in test [8] and 78.3% in test [9].
Turning to `Nc1ccc(F)cc1NC(=O)c1ccc(Nc2ncnc3ccccc23)cc1` [Compound V-3, N-(2-amino-5-fluorophenyl)-4-(quinazoline-4-amino)benzamide], the “Inhibition percentage (%) towards HDACs” value in the test with HDACs (40 μM) is reported as 9.5%; in the test on HDACs (200 μM) it was 36.0%; with HDACs (2 mM), 78.2%. The inhibition at 10 µM in test [1] is 18.2%; in test [2], 5.7%; in test [3], 27.1%; in [4] it was 51%; in test [5] it was -7.8%; in [6], 4.5%. The inhibition at 10 µM in [7] was -12.3%; in [8], 0.6%; in [9], -7.1%. Further, the inhibition at 100 µM in test [1] came to 92.9%; in [2], 5.5%; in test [3], 96%; in [4], 85.1%; in test [5], 72.3%; in [6], 85.5%. Also, the results for the inhibition at 100 µM in test [7], in [8] and in test [9] were 59.2%, 36.9% and 47.2%, respectively.
For the molecule `COc1cc2ncnc(NCc3ccc(C(=O)Nc4cc(-c5cccs5)ccc4N)cc3)c2cc1OC` [Compound V-31, N-[2-amino-5-(2-thienyl)phenyl]-4-[(6,7-dimethoxyquinazoline-4-amino)methyl]benzamide], the “Inhibition percentage (%) towards HDACs” value is recorded as 3.5% in the test on HDACs (40 μM), 17.3% in the test on HDACs (200 μM) and 69.8% with HDACs (2 mM). Also, the inhibition at 10 µM in test [1] was found to be 28.2%; in [2], 20.8%; in test [3], 62.4%; in test [4] it was 27.9%; in test [5] it was 56.3%; in test [6], 24.2%. For the same molecule, the inhibition at 10 µM was -5% in [7], 6.3% in test [8] and 76.3% in test [9]. The inhibition at 100 µM came to 95.8% in test [1]; 50.6% in [2]; 93.7% in test [3]; 67.7% in test [4]; 88.8% in [5]; 89.2% in [6]. Besides, the results for the inhibition at 100 µM in test [7], in test [8] and in test [9] were 51.7%, 38.8% and 77%, respectively.
`COc1ccc2c(NCc3ccc(C(=O)Nc4ccccc4N)cc3)ncnc2c1` [Compound V-32, N-(2-aminophenyl)-4-[(7-methoxyquinazoline-4-amino)methyl]benzamide]: the “Inhibition percentage (%) towards HDACs” value with HDACs (40 μM) amounted to 2.2%; in the test with HDACs (200 μM), 3.1%; in the test on HDACs (2 mM), 42.5%.
Consider `COc1ccc2ncnc(NCc3ccc(C(=O)Nc4ccccc4N)cc3)c2c1` [Compound V-33, N-(2-aminophenyl)-4-[(6-methoxyquinazoline-4-amino)methyl]benzamide], for which, in the test with HDACs, the half-maximal inhibitory concentration (IC50) is 1010 nM, the “inhibitory activity according to in vitro IC50 value against HDACs compared with MS-275” value is listed as “better inhibitory activities than MS-275” and the “inhibitory activity on HDACs compared with MS-275” value was “significantly stronger inhibitory activities than MS-275”. Further, in the test with HDACs (40 μM), the “Inhibition percentage (%) towards HDACs” value turned out to be 53.2%. In the test with HDACs (200 μM), the “Inhibition percentage (%) towards HDACs” value stood at 66.8%. Further, the “Inhibition percentage (%) towards HDACs” value with HDACs (2 mM) worked out at 88.8%.
On to `COc1cccc2c(NCc3ccc(C(=O)Nc4cc(F)ccc4N)cc3)ncnc12` [Compound V-35, N-(2-amino-5-fluorophenyl)-4-[(8-methoxyquinazoline-4-amino)methyl]benzamide], for which the “Inhibition percentage (%) towards HDACs” value with HDACs (40 μM) worked out at 10.1%; with HDACs (200 μM), 47.8%; with HDACs (2 mM) it was 81.8%.
For the molecule `Nc1ccccc1NC(=O)c1ccc(CNc2ncnc3ccc([N+](=O)[O-])cc23)cc1` [Compound V-37, N-(2-aminophenyl)-4-[(6-nitroquinazoline-4-amino)methyl]benzamide], the figures for the “Inhibition percentage (%) towards HDACs” value in the test on HDACs (40 μM), in the test on HDACs (200 μM) and with HDACs (2 mM) were 24.0%, 56.1% and 65.7%, respectively.
In the same order, the values of `COCCOc1cc2ncnc(NCc3ccc(C(=O)Nc4ccncc4N)cc3)c2cc1OCCOC` [Compound V-39, N-(2-amino-4-pyridyl)-4-[(6,7-dimethoxyethoxyquinazoline-4-amino)methyl]benzamide] are 34.3%, 58.0% and 85.3%.
Take `COc1cc2ncnc(NCc3ccc(C(=O)Nc4ccncc4N)cc3)c2cc1OCCCN1CCOCC1` [Compound V-42]: in the test on HDACs, the IC50 was 1670 nM, the “inhibitory activity according to in vitro IC50 value against HDACs compared with MS-275” value is on record as “better inhibitory activities than MS-275” and the “inhibitory activity on HDACs compared with MS-275” value is “significantly stronger inhibitory activities than MS-275”. The “Inhibition percentage (%) towards HDACs” value in the test on HDACs (40 μM) was 17.2%. Also, the “Inhibition percentage (%) towards HDACs” value with HDACs (200 μM) worked out at 46.7%. Moreover, in the test on HDACs (2 mM), the “Inhibition percentage (%) towards HDACs” value turned out to be 90.6%.
Regarding `CC(=O)Nc1ccc2ncnc(NCc3ccc(C(=O)Nc4cc(-c5ccco5)ccc4N)cc3)c2c1` [Compound V-48, N-[2-amino-5-(2-furyl)phenyl]-4-[(6-acetamidoquinazoline-4-amino)methyl]benzamide], the “Inhibition percentage (%) towards HDACs” value was determined as 14.0% in the test on HDACs (40 μM), 42.2% in the test with HDACs (200 μM) and 85.0% in the test with HDACs (2 mM). Moreover, the inhibition at 10 µM in [1] was 75.4%; in [2], -2.2%; in test [3], 9.7%; in test [4] it was 20%; in test [5], 3.9%; in test [6], 10%. The inhibition at 10 µM is -14% in test [7], -16.4% in [8] and 2.9% in test [9]. For the same molecule, the inhibition at 100 µM in [1] is 87.4%; in test [2], 51.8%; in [3], 61.9%; in [4], 57.2%; in [5], 9.8%; in test [6] it was 26.6%. In addition, the inhibition at 100 µM worked out at 20.5% in test [7], 14.8% in test [8] and 17.9% in [9].

(Values after US9034886B2, “4-aminoquinazoline derivatives and uses thereof” (Shanghai Institute of Pharmaceutical Industry, priority 2011, dated 2015).)
